“Also recorded” adds a separate entry of the source.
Tested on: red blood cell aggregation
Assay: Ex vivo inhibition of red blood cell aggregation on human blood
Format: cell-based
Source text: This difference in efficacy was confirmed by the superiority of the enriched troxerutin according to the invention (trihydroxyethylrutoside content in the region of 95%) compared with commercially available troxerutins (content in the region of 84%). The advantage of decreasing the aggregation of red blood cells lies in a reduction in the total blood viscosity, and consequently in better fluidity of the blood. This property is manifested by an increase in the venous return and in the microcirculatory flow rate (increase in the density of the infused capillaries).

Row | Compound | Inhibition of red blood cell aggregation
1 | C[C@@H]1O[C@@H](OC[C@H]2O[C@@H](Oc3c(-c4ccc(OCCO)c(OCCO)c4)oc4cc(OCCO)cc(O)c4c3=O)[C@H](O)[C@@H](O)[C@@H]2O)[C@H](O)[C@H](O)[C@H]1O [trihydroxyethyl derivative, 7,3′,4′-trihydroxyethylrutoside] | significantly improved; also recorded: more effective than the tetrahydroxyethyl derivative
2 | C[C@@H]1O[C@@H](OC[C@H]2O[C@@H](Oc3c(-c4ccc(OCCO)c(OCCO)c4)oc4cc(OCCO)cc(OCCO)c4c3=O)[C@H](O)[C@@H](O)[C@@H]2O)[C@H](O)[C@H](O)[C@H]1O [tetrahydroxyethyl derivative, 5,7,3′,4′-tetrahydroxyethylrutoside, reference compound] | significantly improved

Source: patent publication US6855697B1, “Troxerutin with a high content of trihydroxyethylrutoside and process for its preparation” (Negma-Lerads, priority 1998, dated 2005)
